One assay deals with p110 delta (Homo sapiens (Human), UniProt O00329). Description: PI3K isoform inhibition assay, p110 delta (fluorescence polarization displacement). The assay is classed as biochemical. On the procedure: (§1) PI3K enzymatic activity was assayed by measuring the amount of product phosphatidylinositol 3,4,5-phosphate (PIP3) formed from substrate 4,5 phosphatidylinositol 4,5-phosphate (PIP2) using a fluorescence polarization displacement assay. The decrease in fluorescence polarization of a fluorescent PIP3 probe is measured as it is displaced from a PIP3-binding protein GRP-1 detector by PI3K-catalyzed product. […] The kinase reactions were initiated by the addition of 40 ng/mL p110α/p85α, 300 ng/mL p110β/p85α, 40 ng/mL p110γ, or 40 ng/mL p110δ/p85α (Upstate Group, Millipore; Dundee, UK), and 10 μM PIP2 (Echelon Biosciences) to the wells. […] After 60 minutes of incubation at room temperature to allow equilibration of labeled and unlabeled PIP3 binding, the parallel and perpendicular components of the fluorescence emissions from each sample were measured at an excitation wavelength of 530 nm and an emission wavelength of 590 nm using an Envision fluorescent plate reader with a rhodamine filter (PerkinElmer Life and Analytical Sciences; Wellesley, Mass.). The assay is capable of detecting 0.1-2.0 μM PIP3 product. The IC50 values were obtained by fitting the dose-dependent inhibition data to a 4-parameter equation using Assay Explorer software (MDL, San Ramon, Calif.).
The Formula I compound was serially diluted in 100% DMSO. The kinase reaction was incubated for 1 h at room temperature, and the reaction was terminated by the addition of PBS. IC50 values were subsequently determined using sigmoidal dose-response curve fit (variable slope).
(§2) The four Class I PI 3-kinases are cloned into baculovirus vectors as follows: […]

The target in the next assay is p110 alpha (Homo sapiens (Human), UniProt P42336). Description: PI3K isoform inhibition assay, p110 alpha (for alpha/delta selectivity). The following applies: ratio of biochemical IC50 values. As for the experimental part:
as §1
The same protocol may be used to establish IC50 values for p110α (alpha) PI3K binding.
as §2

The structures appear in SMILES notation. pIC50: −log10 of the molar value.

We go through 21 compounds from patent publication US9090628B2, “Benzoxazepin compounds selective for PI3K P110 delta and methods of use” (GENENTECH, INC., priority 2011, dated 2015).

As a reminder, the pIC50 is the IC50 on a negative log10 scale, so that one unit is a factor of ten.

Chain of p110 delta (O00329 whole entry, canonical isoform): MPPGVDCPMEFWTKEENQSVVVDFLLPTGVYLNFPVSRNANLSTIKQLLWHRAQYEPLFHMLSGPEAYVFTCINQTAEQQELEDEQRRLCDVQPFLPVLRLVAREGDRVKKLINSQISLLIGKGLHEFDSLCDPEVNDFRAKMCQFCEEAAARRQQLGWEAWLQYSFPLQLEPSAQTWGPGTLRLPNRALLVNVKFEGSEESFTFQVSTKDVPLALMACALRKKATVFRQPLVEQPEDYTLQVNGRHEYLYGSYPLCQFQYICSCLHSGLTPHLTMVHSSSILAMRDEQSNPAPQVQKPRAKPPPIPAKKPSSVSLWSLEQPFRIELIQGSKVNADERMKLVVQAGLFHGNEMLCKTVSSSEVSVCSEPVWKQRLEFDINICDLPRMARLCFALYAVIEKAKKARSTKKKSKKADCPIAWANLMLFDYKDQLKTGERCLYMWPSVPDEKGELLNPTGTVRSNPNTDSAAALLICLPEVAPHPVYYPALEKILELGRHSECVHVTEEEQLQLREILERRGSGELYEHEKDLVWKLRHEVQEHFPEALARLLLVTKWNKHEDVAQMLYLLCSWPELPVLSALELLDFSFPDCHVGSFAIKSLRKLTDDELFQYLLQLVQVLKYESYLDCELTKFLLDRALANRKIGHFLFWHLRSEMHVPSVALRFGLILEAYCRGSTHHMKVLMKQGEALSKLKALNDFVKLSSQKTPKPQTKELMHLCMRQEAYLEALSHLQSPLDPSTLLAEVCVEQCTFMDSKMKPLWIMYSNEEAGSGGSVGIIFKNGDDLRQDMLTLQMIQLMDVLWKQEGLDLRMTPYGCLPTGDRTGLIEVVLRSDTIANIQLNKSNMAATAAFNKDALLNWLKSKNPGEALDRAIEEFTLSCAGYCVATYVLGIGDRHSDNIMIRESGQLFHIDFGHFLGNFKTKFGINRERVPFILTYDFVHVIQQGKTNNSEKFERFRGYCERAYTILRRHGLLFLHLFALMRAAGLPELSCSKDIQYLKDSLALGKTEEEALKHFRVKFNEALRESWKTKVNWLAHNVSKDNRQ
Chain of p110 delta (P27986 whole entry partner, canonical isoform): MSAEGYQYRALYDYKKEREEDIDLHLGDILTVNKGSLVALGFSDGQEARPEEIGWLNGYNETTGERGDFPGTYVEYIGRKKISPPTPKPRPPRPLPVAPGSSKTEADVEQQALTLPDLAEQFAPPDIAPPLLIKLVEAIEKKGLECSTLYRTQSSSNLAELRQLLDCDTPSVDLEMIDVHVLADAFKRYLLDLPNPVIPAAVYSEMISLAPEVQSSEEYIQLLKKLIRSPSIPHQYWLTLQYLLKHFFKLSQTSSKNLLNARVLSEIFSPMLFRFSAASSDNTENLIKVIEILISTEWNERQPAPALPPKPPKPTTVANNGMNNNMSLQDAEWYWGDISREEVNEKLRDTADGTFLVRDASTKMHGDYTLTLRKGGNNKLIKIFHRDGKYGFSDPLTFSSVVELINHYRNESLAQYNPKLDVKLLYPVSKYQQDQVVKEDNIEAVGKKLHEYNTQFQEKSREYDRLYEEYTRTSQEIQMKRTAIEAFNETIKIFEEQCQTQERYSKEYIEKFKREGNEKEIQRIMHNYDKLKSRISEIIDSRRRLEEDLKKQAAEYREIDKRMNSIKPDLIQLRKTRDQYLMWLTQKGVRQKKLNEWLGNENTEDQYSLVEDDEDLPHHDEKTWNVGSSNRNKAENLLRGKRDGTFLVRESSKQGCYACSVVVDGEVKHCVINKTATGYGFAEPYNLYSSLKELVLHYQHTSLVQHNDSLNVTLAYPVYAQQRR
Chain of p110 alpha (P42336 whole entry, canonical isoform): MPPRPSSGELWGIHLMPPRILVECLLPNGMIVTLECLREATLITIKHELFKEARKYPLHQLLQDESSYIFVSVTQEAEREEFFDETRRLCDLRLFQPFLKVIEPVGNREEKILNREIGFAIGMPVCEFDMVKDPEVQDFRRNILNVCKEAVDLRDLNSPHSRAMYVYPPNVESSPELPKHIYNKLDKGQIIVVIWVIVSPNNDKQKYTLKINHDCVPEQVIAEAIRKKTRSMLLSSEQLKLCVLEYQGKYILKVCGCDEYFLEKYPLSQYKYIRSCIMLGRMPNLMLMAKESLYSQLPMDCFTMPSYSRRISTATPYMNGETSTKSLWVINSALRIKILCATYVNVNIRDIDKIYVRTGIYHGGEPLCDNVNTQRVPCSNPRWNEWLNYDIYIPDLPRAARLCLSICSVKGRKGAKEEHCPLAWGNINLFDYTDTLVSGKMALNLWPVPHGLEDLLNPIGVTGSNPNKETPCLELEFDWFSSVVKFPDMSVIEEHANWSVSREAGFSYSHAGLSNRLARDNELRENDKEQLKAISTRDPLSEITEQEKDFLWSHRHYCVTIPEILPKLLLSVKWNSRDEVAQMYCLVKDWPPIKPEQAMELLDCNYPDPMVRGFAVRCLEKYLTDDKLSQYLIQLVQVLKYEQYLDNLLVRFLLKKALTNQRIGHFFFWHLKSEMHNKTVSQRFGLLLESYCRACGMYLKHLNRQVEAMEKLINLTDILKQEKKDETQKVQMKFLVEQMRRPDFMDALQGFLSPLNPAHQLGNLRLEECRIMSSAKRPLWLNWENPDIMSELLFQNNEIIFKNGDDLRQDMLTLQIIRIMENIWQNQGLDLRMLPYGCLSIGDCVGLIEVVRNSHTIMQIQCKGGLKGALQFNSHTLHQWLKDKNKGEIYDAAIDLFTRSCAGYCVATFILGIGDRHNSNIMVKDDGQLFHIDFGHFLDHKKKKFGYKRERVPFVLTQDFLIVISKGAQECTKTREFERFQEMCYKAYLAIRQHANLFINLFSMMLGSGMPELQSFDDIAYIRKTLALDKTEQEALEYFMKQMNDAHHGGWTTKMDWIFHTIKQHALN
Chain of p110 alpha (P27986 whole entry partner, canonical isoform): as the sequence (P27986 whole entry partner, canonical isoform) above

`CC(C)n1ncnc1-c1cn2c(n1)-c1cnc(N3CCCC3CN3CCCC3)cc1OCC2` (stereo not drawn) [Example 105, 2-(1-isopropyl-1H-1,2,4-triazol-5-yl)-9-(2-(pyrrolidin-1-ylmethyl)pyrrolidin-1-yl)-5,6-dihydroimidazo[1,2-d]pyrido[3,4-f][1,4]oxazepine]: the pIC50 on p110 delta is 9.15. Further, the “IC50 p110 alpha/IC50 p110 delta” value at p110 alpha was 18.3.

On p110 delta, `CC(C)n1ncnc1-c1cn2c(n1)-c1cnc(N3CCCC3C3CCN(C)CC3)cc1OCC2` (stereo not drawn) [Example 106, 2-(1-isopropyl-1H-1,2,4-triazol-5-yl)-9-(2-(1-methylpiperidin-4-yl)pyrrolidin-1-yl)-5,6-dihydroimidazo[1,2-d]pyrido[3,4-f][1,4]oxazepine] had a negative logarithm of the IC50 (pIC50) of 9.27. The “IC50 p110 alpha/IC50 p110 delta” value at p110 alpha is 25.7.

Compound `CC(C)n1ncnc1-c1cn2c(n1)-c1ccc(-c3ccccc3S(N)(=O)=O)cc1OCC2` [Example 109, 2-(2-(1-isopropyl-1H-1,2,4-triazol-5-yl)-5,6-dihydrobenzo[f]imidazo[1,2-d][1,4]oxazepin-9-yl)benzenesulfonamide] had a pIC50 at p110 delta of 7.85. The “IC50 p110 alpha/IC50 p110 delta” value on p110 alpha is 17.3.

Turning to `Cc1nc(-c2cn3c(n2)-c2ccc(-c4ncnn4C4CCN(C(C)(C)C)CC4)cc2OCC3)n(C(C)C)n1` [Example 258, 9-(1-(1-tert-butylpiperidin-4-yl)-1H-1,2,4-triazol-5-yl)-2-(1-isopropyl-3-methyl-1H-1,2,4-triazol-5-yl)-5,6-dihydrobenzo[f]imidazo[1,2-d][1,4]oxazepine], the pIC50 on p110 delta was 7.09. Moreover, the “IC50 p110 alpha/IC50 p110 delta” value at p110 alpha is recorded as 10.2.

`Cc1nc(-c2cn3c(n2)-c2ccc(OC4(CN5CCN(C)CC5)CC4)cc2OCC3)n(C(C)C)n1` [Example 259, 2-(1-isopropyl-3-methyl-1H-1,2,4-triazol-5-yl)-9-(1-((4-methylpiperazin-1-yl)methyl)cyclopropoxy)-5,6-dihydrobenzo[f]imidazo[1,2-d][1,4]oxazepine]: the pIC50 on p110 delta is 8.48. Moreover, on p110 alpha, the “IC50 p110 alpha/IC50 p110 delta” value is on record as 26.1.

As for `Cc1nc(-c2cn3c(n2)-c2ccc(OC4CC(C)CN(C(C)C)C4)cc2OCC3)n(C(C)C)n1` (stereo not drawn) [Example 260, 2-(1-isopropyl-3-methyl-1H-1,2,4-triazol-5-yl)-9-(1-isopropyl-5-methylpiperidin-3-yloxy)-5,6-dihydrobenzo[f]imidazo[1,2-d][1,4]oxazepine], the pIC50 at p110 delta is 8.59. Moreover, at p110 alpha, the “IC50 p110 alpha/IC50 p110 delta” value amounted to 12.8.

Take `Cc1nc(-c2cn3c(n2)-c2ccc(OC4(C)CCN(C(C)C)C4)cc2OCC3)n(C(C)C)n1` (stereo not drawn) [Example 261, 2-(1-isopropyl-3-methyl-1H-1,2,4-triazol-5-yl)-9-(1-isopropyl-3-methylpyrrolidin-3-yloxy)-5,6-dihydrobenzo[f]imidazo[1,2-d][1,4]oxazepine]: the pIC50 on p110 delta was 9.20. In addition, the “IC50 p110 alpha/IC50 p110 delta” value on p110 alpha turned out to be 14.4.

`Cc1nc(-c2cn3c(n2)-c2ccc(-c4ccnn4C4CCCN(Cc5ccccc5)C4)cc2OCC3)n(C(C)C)n1` (stereo not drawn) [Example 262, 9-(1-(1-benzylpiperidin-3-yl)-1H-pyrazol-5-yl)-2-(1-isopropyl-3-methyl-1H-1,2,4-triazol-5-yl)-5,6-dihydrobenzo[f]imidazo[1,2-d][1,4]oxazepine] gave a pIC50 at p110 delta of 8.07. On p110 alpha, the “IC50 p110 alpha/IC50 p110 delta” value is given as 21.8.

For `Cc1cc2c(cc1-c1ccnn1C1CCN(C)CC1)OCCn1cc(-c3ncnn3C(C)C)nc1-2` [Example 264, 2-(1-isopropyl-1H-1,2,4-triazol-5-yl)-10-methyl-9-(1-(1-methylpiperidin-4-yl)-1H-pyrazol-5-yl)-5,6-dihydrobenzo[f]imidazo[1,2-d][1,4]oxazepine], the negative logarithm of the IC50 (pIC50) at p110 delta is 7.76. In addition, the “IC50 p110 alpha/IC50 p110 delta” value on p110 alpha was 10.

For the compound `Cc1nc(-c2cn3c(n2)-c2ccc(-c4ccnn4C4CCN(C(C)(C)C)CC4)cc2OCC3)n(C(C)C)n1` [Example 269, 9-[2-(1-tert-butyl-4-piperidyl)pyrazol-3-yl]-2-(2-isopropyl-5-methyl-1,2,4-triazol-3-yl)-5,6-dihydroimidazo[1,2-d][1,4]benzoxazepine], the pIC50 at p110 delta is 8.34. Further, the “IC50 p110 alpha/IC50 p110 delta” value at p110 alpha was 9.8.

Take `CC(C)n1ncnc1-c1cn2c(n1)-c1cc([S+]([O-])C3CCN(C(C)(C)C)CC3)ccc1OCC2` (stereo not drawn) [Example 270, 10-(1-tert-butylpiperidin-4-ylsulfinyl)-2-(1-isopropyl-1H-1,2,4-triazol-5-yl)-5,6-dihydrobenzo[f]imidazo[1,2-d][1,4]oxazepine]: the pIC50 at p110 delta was 9.09. Further, the “IC50 p110 alpha/IC50 p110 delta” value at p110 alpha is listed as 184.

As for `Cc1nc(-c2cn3c(n2)-c2ccc(OC4(C)CNC4)cc2OCC3)n(C(C)C)n1` [Example 271, 2-(2-isopropyl-5-methyl-1,2,4-triazol-3-yl)-9-(3-methylazetidin-3-yl)oxy-5,6-dihydroimidazo[1,2-d][1,4]benzoxazepine], the pIC50 at p110 delta was 9.20. The “IC50 p110 alpha/IC50 p110 delta” value on p110 alpha came out at 9.8.

At p110 delta, `Cc1nc(-c2cn3c(n2)-c2ccc(N4CCCC4C4CCN(CC(C)(C)O)CC4)cc2OCC3)n(C(C)C)n1` (stereo not drawn) [Example 272, 1-[4-[1-[2-(2-isopropyl-5-methyl-1,2,4-triazol-3-yl)-5,6-dihydroimidazo[1,2-d][1,4]benzoxazepin-9-yl]pyrrolidin-2-yl]-1-piperidyl]-2-methyl-propan-2-ol] gave a pIC50 of 9.01. In addition, on p110 alpha, the “IC50 p110 alpha/IC50 p110 delta” value is 49.9.

With `Cc1nc(-c2cn3c(n2)-c2cc(C(=O)N4CCN(C(C)(C)C)CC4)c(F)cc2OCC3)n(C(C)C)n1` [Example 273, (4-tert-butylpiperazin-1-yl)-[9-fluoro-2-(2-isopropyl-5-methyl-1,2,4-triazol-3-yl)-5,6-dihydroimidazo[1,2-d][1,4]benzoxazepin-10-yl]methanone], at p110 delta, the pIC50 is 8.56. Also, at p110 alpha, the “IC50 p110 alpha/IC50 p110 delta” value is on record as 69.9.

With `Cc1nc(-c2cn3c(n2)-c2ccc(N4CCCC4C4CCN(CC(C)(C)O)CC4)cc2OCC3)n(C(C)C)n1` (stereo not drawn) [Example 274, 1-[4-[1-[2-(2-isopropyl-5-methyl-1,2,4-triazol-3-yl)-5,6-dihydroimidazo[1,2-d][1,4]benzoxazepin-9-yl]pyrrolidin-2-yl]-1-piperidyl]-2-methyl-propan-2-ol], the pIC50 on p110 delta is 8.66. Besides, the “IC50 p110 alpha/IC50 p110 delta” value on p110 alpha stood at 34.

Take `Cc1nc(-c2cn3c(n2)-c2ccc(OC4(c5ccccc5)CN(C(C)C)C4)cc2OCC3)n(C(C)C)n1` [Example 275, 2-(2-isopropyl-5-methyl-1,2,4-triazol-3-yl)-9-(1-isopropyl-3-phenyl-azetidin-3-yl)oxy-5,6-dihydroimidazo[1,2-d][1,4]benzoxazepine]: on p110 delta, the negative-log IC50 (pIC50) was 8.21. Also, the “IC50 p110 alpha/IC50 p110 delta” value at p110 alpha amounted to 17.

Compound `Cc1nc(-c2cn3c(n2)-c2cc(C(O)C4CCN(C)CC4)ccc2OCC3)n(C(C)C)n1` (stereo not drawn) [Example 276, [2-(2-isopropyl-5-methyl-1,2,4-triazol-3-yl)-5,6-dihydroimidazo[1,2-d][1,4]benzoxazepin-10-yl]-(1-methyl-4-piperidyl)methanol] had a pIC50 on p110 delta of 7.75. Besides, the “IC50 p110 alpha/IC50 p110 delta” value on p110 alpha came out at 10.8.

Compound `Cc1nc(-c2cn3c(n2)-c2ccc(-c4cnn(C(C)C)c4CN4CCN(C(C)(C)C)CC4)cc2OCC3)n(C(C)C)n1` [Example 277, 9-[5-[(4-tert-butylpiperazin-1-yl)methyl]-1-isopropyl-pyrazol-4-yl]-2-(2-isopropyl-5-methyl-1,2,4-triazol-3-yl)-5,6-dihydroimidazo[1,2-d][1,4]benzoxazepine] had a pIC50 at p110 delta of 8.40. Moreover, the “IC50 p110 alpha/IC50 p110 delta” value on p110 alpha turned out to be 27.8.

Consider `Cc1nc(-c2cn3c(n2)-c2ccc(-c4cnn(C(C)C)c4CN4CCN(C)CC4)cc2OCC3)n(C(C)C)n1` [Example 278, 9-[1-isopropyl-5-[(4-methylpiperazin-1-yl)methyl]pyrazol-4-yl]-2-(2-isopropyl-5-methyl-1,2,4-triazol-3-yl)-5,6-dihydroimidazo[1,2-d][1,4]benzoxazepine], for which, on p110 delta, the pIC50 is 8.48. For the same compound, the “IC50 p110 alpha/IC50 p110 delta” value at p110 alpha turned out to be 33.4.

Consider `Cc1nc(-c2cn3c(n2)-c2ccc(-c4cn(C)nc4C4CCCN(C(C)C)C4)cc2OCC3)n(C(C)C)n1` (stereo not drawn) [Example 280, 2-(2-isopropyl-5-methyl-1,2,4-triazol-3-yl)-9-[3-(1-isopropyl-3-piperidyl)-1-methyl-pyrazol-4-yl]-5,6-dihydroimidazo[1,2-d][1,4]benzoxazepine], for which the negative logarithm of the IC50 (pIC50) on p110 delta is 9.06. At p110 alpha, the “IC50 p110 alpha/IC50 p110 delta” value worked out at 32.7.

`Cc1nc(-c2cn3c(n2)-c2cc(C(=O)N4CCN(C(C)(C)CO)CC4)c(F)cc2OCC3)n(C(C)C)n1` [Example 281, [9-fluoro-2-(2-isopropyl-5-methyl-1,2,4-triazol-3-yl)-5,6-dihydroimidazo[1,2-d][1,4]benzoxazepin-10-yl]-[4-(2-hydroxy-1,1-dimethyl-ethyl)piperazin-1-yl]methanone] gave a pIC50 at p110 delta of 8.25. Besides, the “IC50 p110 alpha/IC50 p110 delta” value at p110 alpha is 30.6.
